Measurements reported in PubChem BioAssay (NCI).
Where “and” joins values, the source holds several entries; their conditions need not be identical. Identical values can stand only once.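 Test compounds were applied to cells in 96-well plates for 48 hours at 5 doses. Abbreviation: GI50, concentration required for 50% inhibition of growth. TGI marks complete inhibition of growth.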

What was measured:
Test in all cases: NCI-60 cell line screen, 48 h
[1] = tested on: BT-549 breast
[2] = tested on: HS 578T breast
[3] = tested on: MCF7 breast
[4] = tested on: NCI/ADR-RES ovarian
[5] = tested on: MDA-N

| SMILES | GI50 [1] | TGI [1] [µM] | GI50 [2] | TGI [2] | GI50 [3] | TGI [3] | GI50 [4] | TGI [4] [µM] | TGI [5] [µM] |
| --- | --- | --- | --- | --- | --- | --- | --- | --- | --- |
| O=C(/C=C/N1CCN(c2cccc(C(F)(F)F)c2)CC1)c1ccc(Cl)cc1Cl | 20.5 µM | 40.3 | 27.5 µM | 63.8 µM | 24.7 µM | 60.7 µM | 21.7 µM | 50.8 |  |
| COc1ccc(C[C@H]2C[C@@H](O)[C@@H](C)C/C=C/Cc3cccc(O)c3C(=O)O2)cn1 | 20.7 µM | 48.8 | 14.4 µM | 36.7 µM | 19.5 µM | 66.6 µM | 19.1 µM | 48.8 |  |
| COc1cccc(-c2nn(-c3ccccc3)cc2-c2ccnc(NCCNC(=O)Nc3ccc(Cl)c(Cl)c3)c2)c1 | 2.94 µM | 10.4 | 1.96 µM | 5.19 µM | 2.46 µM | 11.7 µM | 2.08 µM | 5.64 |  |
| COc1ccc2nc3ccc(OC)cc3c(SCCCN)c2c1 | 10.5 µM | 23.4 | 5.9 µM | 15.5 µM |  |  | 13.1 µM | 37.1 |  |
| COc1ccccc1Cn1cc2c(c1)-c1oncc1CC2 | 7.5 µM | > 100 | 0.384 µM | 3.03 µM | 0.381 µM | > 66.5 µM | 0.529 µM | 3.7 |  |
| O=C(N[C@@H]1CCCc2ccccc21)[C@H](CCC(=O)N1CCN(C2CCCCC2)CC1)N1C(=O)[C@@H](N2C(=O)OC[C@@H]2c2ccccc2)[C@H]1/C=C/c1ccccc1 | 1.76 µM | 3.92 | 3.52 µM | 21.1 µM | 2.18 µM | 13.4 µM | 2.78 µM | 10.6 |  |
| COc1cc[nH]c1/C=C1\C(=O)Nc2ccc(F)c(C#CC3(O)CCOCC3)c21 | 0.556 µM | 1.37 | 0.528 µM | 3.56 µM | 0.758 µM | 4.68 µM | 0.885 µM | 8.42 |  |
| Nc1ncnc2occ(-c3ccc(NC(=O)Nc4cc(C(F)(F)F)cc(C(F)(F)F)c4)cc3)c12 | 2.66 µM | 5.77 | 2.12 µM | 8.03 µM | 3.19 µM | 6.96 µM | 3.44 µM | 9.07 |  |
| CC1(C)N=C(N)N=C(N)N1c1ccc(OCC(=O)Nc2cccc(S(=O)(=O)F)c2)c(Cl)c1 | > 100 µM | > 100 |  | > 100 µM |  | > 43.5 µM |  | > 100 |  |
| CCN(CC)CCOc1ccc(/C=C2\C[C@H]3[C@@H]4CC=C5C[C@@H](OC(C)=O)CC[C@]5(C)[C@H]4CC[C@]3(C)[C@H]2OC(C)=O)cc1OC |  |  | 10.6 µM | 22.4 µM | 12.8 µM | > 50 µM | 11.1 µM | 22.3 |  |
| COc1ccc2c(c1O)[C@@]13C=C(O)C(=O)C=C1[C@@H](C2)N(C)CC3 |  | > 100 |  | > 100 µM |  | > 100 µM |  | > 100 | > 100 |
| Cn1c(=O)n(-c2ccc(C(C)(C)C#N)cc2)c2c3cc(-c4cnc5ccccc5c4)ccc3ncc21 | 0.00493 µM and < 0.01 µM |  | < 0.01 µM and 0.00204 µM | 0.0195 µM and 0.00587 µM | < 0.01 µM and 0.00562 µM | 12.2 µM and > 5.84 µM and > 100 µM | 0.0212 µM and 0.00849 µM and 0.0197 µM | > 100 |  |
| CC(C)(C)n1cc(-c2ccnc(NCCNS(=O)(=O)c3ccc(Br)cc3)c2)c(-c2cccc(O)c2)n1 | 1.64 µM | 3.2 |  |  | 1.48 µM | 3.7 µM | 2.13 µM | 4.99 |  |
| Cc1c(C(C)C)cc(OCCO)cc1C(C)C |  | > 100 |  | 93.3 µM |  | > 100 µM |  | > 100 | > 100 |
| COc1cc(C(c2cc3c(cc2O)OCO3)N2CCCC2)cc(OC)c1OC (centres undefined) |  |  |  |  |  | 63.8 µM |  | 56.4 | 27.9 |
| CC1Cc2c(N(C)C)ncnc2N(C)c2ccc(Cl)cc21 (centres undefined) | 6.63 µM | 32.1 | 3.08 µM | > 100 µM | 1.51 µM | > 100 µM | 2.4 µM | 23.9 |  |
| CC[C@]12C=CCN3CC[C@]4(C(=C(C(=O)OC)C1)Nc1cc(O)ccc14)[C@@H]32 | 20.6 µM | 41.9 | 15.5 µM | 58.1 µM | 19.1 µM | 45.5 µM | 14.4 µM | 33.6 |  |
| CCN(CC)CCC(=O)Nc1ccc(Cn2nnc3c2C(=O)c2nnn(Cc4ccc(NC(=O)CCN(CC)CC)cc4)c2C3=O)cc1 | 1.64 µM | 3.06 | 2.34 µM | 8.84 µM | 0.154 µM | 0.373 µM | > 100 µM | > 100 |  |
| Cc1ccc(C2=Nc3c(N)ncnc3NC(c3cccc(Nc4ccnc5cc(C(F)(F)F)ccc45)c3)C2)cc1 (centres undefined) | 2.83 µM | 13.4 | 4.01 µM | > 100 µM | 2.41 µM | 11.5 µM | 2.96 µM | 10.2 |  |
| O=C(OCc1ccccc1CN1CCOCC1)c1ccc(Br)cc1 |  | > 100 |  | > 100 µM |  | > 100 µM |  | > 100 |  |

| SMILES | GI50 [1] | TGI [1] [µM] | GI50 [2] | TGI [2] | GI50 [3] | TGI [3] | GI50 [4] | TGI [4] [µM] | TGI [5] [µM] |
| --- | --- | --- | --- | --- | --- | --- | --- | --- | --- |
| COc1ccccc1C(=O)c1cnc(NC2CCN(S(C)(=O)=O)CC2)nc1N | > 13.3 µM | > 25 | 11.4 µM | > 25 µM | 1.19 µM | > 25 µM | > 25 µM | > 25 |  |
| CCOC(=O)c1[nH]c2c(c1C)-c1[nH]c(=O)c(S(=O)(=O)c3ccccc3)cc1SC2 | 36.5 µM | > 100 | 24.7 µM | 94 µM | 40.4 µM | > 100 µM | 52.9 µM | > 100 |  |
| CCCC/C(=N\N=C(N)N)c1ccc(F)cc1 | 3.48 µM | 12.5 | 2.88 µM | 8.81 µM | 0.758 µM | 11.9 µM | 2.38 µM | 8.29 |  |
| CCCCCCCCCCCCCCCC[N+]1(CC)CCCC1 |  |  | 0.679 µM | 3.26 µM |  |  | 12.9 µM | 38.4 |  |
| O=C1c2ccccc2-c2cc3ccccc3c(=O)n21 |  |  |  | > 100 µM |  | > 100 µM |  | > 100 | > 100 |
| N#CC1c2ccccc2-c2ccccc2N1C(=O)c1ccccc1 (centres undefined) | 0.507 µM | 2.54 | 1.99 µM | 6.72 µM | 1.3 µM | > 100 µM | 1.81 µM | > 100 |  |
| O=C1C=C(Nc2cccc(Br)c2)c2ccccc2C1=O | 4.58 µM | 33.9 | 0.259 µM | 14.4 µM | 2.71 µM | 24.2 µM | 10.8 µM | 51.6 |  |
| O=c1oc(-c2ccc(O)c(O)c2)cc2cc(O)cc(O)c12 | 26.2 µM | 84.8 | 39.5 µM | 94.4 µM | 42.7 µM | > 100 µM | 33.5 µM | > 100 |  |
| c1ccc2c(c1)nc(NCCN1CCNCC1)c1c3ccccc3[nH]c21 | 1.53 µM | 4.04 | 1.19 µM | 4.67 µM | 0.0799 µM | 0.709 µM | 1.52 µM | 7.63 |  |
| C[C@@H](NC(=O)Cc1cc(F)cc(F)c1)C(=O)N[C@@]1(C)N=C(c2ccccc2)c2ccccc2N(C)C1=O | 9.6 µM | > 66.4 | 24.7 µM | > 100 µM | 36.5 µM | > 100 µM | 31.9 µM | > 90.7 |  |
| O=C(Oc1c(I)ccccc1=O)c1ccc([N+](=O)[O-])cc1 |  | 41.8 |  | 68.2 µM |  | 35.5 µM |  | > 100 |  |
| Cc1ccc(NCSc2ccc(Cl)cc2)cc1 | 6.43 µM | > 100 | 24.7 µM | > 100 µM | > 100 µM | > 100 µM | > 100 µM | > 100 |  |
| Cc1nnc([S-])s1.[Au+].c1ccc([PH+](c2ccccc2)c2ccccc2)cc1 | 1.47 µM | 2.88 |  |  |  |  |  |  |  |
| COc1ccc(C2=CC(c3cc(OC)c(OC)c(OC)c3)n3ncnc3N2)cc1 (centres undefined) | 0.0684 µM | 2.04 | 0.0734 µM | > 100 µM | 0.0399 µM | 13.7 µM | 0.0444 µM | 20.3 |  |
| CO[C@H]1C=C[C@]23c4cc5c(cc4CN(CC2O)[C@@H]3C1)OCO5 (some centres undefined) |  | 13.7 |  | 81.9 µM |  |  |  | 58.8 | 64.8 |
| COC(=O)c1cc(Nc2ccc(O)c3c2C(=O)c2c([N+](=O)[O-])ccc(O)c2C3=O)cc(C(=O)OC)c1 | 13.7 µM | > 100 | 3.77 µM | > 100 µM | 4.3 µM | > 100 µM | 26.8 µM | > 100 |  |
| C/C(=C(/c1ccc(O)cc1)c1ccc(OCCN2CCCC2)cc1)c1ccccc1 | 4.2 µM | 15.7 | 2.96 µM | 9.9 µM |  | 2.72 µM | 4.17 µM | 18.3 |  |
| Cc1ccc([P+](Cc2ccc([N+](=O)[O-])cc2)(c2ccc(C)cc2)c2ccc(C)cc2)cc1 | 2.68 µM | 8.87 | 3.46 µM | 17.7 µM | 2.72 µM | 12.6 µM | 68.3 µM | > 100 |  |
| O=C1OC(c2ccc(O)cc2)(c2ccc(O)cc2)c2cccc3cccc1c23 | 1.26 µM | 4.01 | 0.249 µM | 20.9 µM | 1.98 µM | 25.9 µM | 21.9 µM | 68.7 |  |
